Experimental data reported in patent US10201558B2, “Compositions of selenoorganic compounds and methods of use thereof” (Alltech, Inc., priority 2014, dated 2019).
Entries after “also recorded” stand apart in the source; their conditions may differ.

Key:
MAPK13 = experiment: QRT-PCR of MAPK13 mRNA in control and FOXO4 KD IMR-32 cells; type: cell-based, human; settings: 24 hours
Experimental: IMR-32 cells were cultured on 12-well plates for 24 hours and then incubated with FOXO4 siRNA lentiviruses (SC-29650V, Santa Cruz) or control siRNA lentiviruses (sc-108080, Santa Cruz) in the presence of Polybrene (5 μg/ml, Santa Cruz) for 24 hours according to the manufacturer's protocol. These lentiviral siRNA-transfected cells were amplified in normal media for 3 days and then incubated with puromycin for 9-14 days to obtain the stable Control KD (stably transfected with the control siRNAs) and FOXO4KD (stably transfected with Foxo4 siRNAs) cells. These control and Foxo4 KD cells were subjected to cell survival, mitochondrial potential and RNA analysis.
Human IMR-32 cells were seeded on gelatinized 6-well (6.5×10^5 cells/well) or 24-well (1.3×10^5 cells/well) plates. Cells were treated with control (0 ppb) or various compounds for 6 hours or 24 hours. Total RNA from these cells was isolated using Trizol (Invitrogen) according to the manufacturer's protocol, and then incubated with DNase I to remove any potential contaminated genomic DNA. Then RNA samples were subjected to real-time PCR analysis using the Applied-Bioscience's RT kit and predesigned Taqman probes (Invitrogen), as described previously (Lan et al EMBO J 2003). The mRNA levels of UCP1, UCP2, UCP3, SLC25A27 (UCP4), SLC25A14 (UCP5), PSEN1, Nicastrin, GSK3B, MAPK11-14, PPARG, APOE, RCAN1, RCAN1.1, G6PC, INSR, IGF1R and FOXO4 were measured. Three to six samples were analyzed in each treatment group. Data were normalized by Actin B (ACTB) or Glyceraldehyde Phosphate Dehydrogenase (GAPDH) mRNA levels in each sample and are presented as mean±SEM of 3-6 samples.
Normal control cells and FOXO4KD cells were incubated with two doses of Compound C for 24 hours, and subjected to QRT-PCR analysis of the MAPK11-14 genes. The relative mRNA expression of all four MAPK genes in normal control IMR-32 cells was assessed. […] Data in Compound C-treated control and FOXO4 KD cells were normalized by their levels in control and FOXO4KD cells, respectively. Mean±SEM of indicated number of samples in the bar graphs. […]

G6PC = experiment: Western blot of G6PC protein in IMR-32 cells; type: cell-based, human; settings: 150 ppb, 24 hours
Experimental: IMR-32 cells were seeded on 6-well plates and then treated with control and various compounds for 6 hours and 24 hours, as described above. After treatments, cells were rinsed with ice-cold PBS and lysed in ice-cold RIPA buffer containing complete proteinase and phosphatase inhibitors (Thermo-Fisher Scientific, Waltham, Mass.) on ice for 30 min Cell lysates were collected using a cell scraper and transfer pipette and then centrifuged at 12000×g for 30 min at 4° C. to remove the DNA pellet and obtain the protein extract. Protein levels in the supernatant of these cell lysates were determined using the Pierce Micro-BCA protein assay kit (Thermo Scientific-Piece Biotechnology, Rockford, Ill.) according to the manufacturer's protocol […]
Positive signals on the membrane blots were detected using Amersham's enhanced chemiluminescence (ECL) Western Blotting Prime Detection reagents (GE healthcare Lifescience, Pittsburgh, Pa.). Images of these luminescence signals on the membrane blots were captured using the LI-COR Odyssey Fc Image system (Lincoln, Nebr.). […] Protein band densities in the Western blots were determined using the Li—COR Image studio software or NIH ImageJ software, and then normalized by ACTB protein level in each sample. […]

Neprilysin = experiment: Western blot of Neprilysin in APP/PS1 mouse brains; type: in vivo; settings: APP/PS1 mice, Compound C diet vs control diet
Experimental: Male APPΔNLh/ΔNLh×PS1P246 L/246 L knock-in model mice of Alzheimer's disease (abbreviated APP/PS1) were genotyped using standard primers for human APP (Amyloid Precursor Protein) and human PS1 (PSEN1). These APP/PS1 mice starting at the age of 6 months, were fed either a control diet containing normal levels of selenium (0.3 ppm from plant and inorganic selenium salt sources) or an experimental diet containing Compound C (the control diet to which was added 1 ppm Se from Compound C) for 6 months. […]
Frozen hemispheres of control- and Compound C-treated APP/PS1 mice were weighed and homogenized in PBS buffer, and then subsequently extracted with RIPA buffer (Sigma) containing complete proteinase and phosphatase inhibitors (Fisher Scientific). Protein levels in the samples were determined by micro-BCA protein analysis according to the manufacturer's protocol. […] Positive signals on the membrane blots were detected using Amersham's enhanced chemiluminescence Western Blotting Prime Detection reagents (GE healthcare Lifescience, Pittsburgh, Pa.). Images of these luminescence signals on the membrane blots were captured using the LI-COR Odyssey Fc Image system (Lincoln, Nebr.). Protein band densities in Western blots were determined using NIH Image J software, and then normalized by Actb levels in each samples to obtain the protein levels.

C[Se]C[C@H]1O[C@@H](n2cnc3c(N)ncnc32)C(O)C1O (stereo in doubt) [Compound C, 5′-deoxy-5′-methylselenoadenosine]
MAPK13 mRNA levels (MAPK13; FOXO4KD cells, 75 ppb and 150 ppb): none of the mRNA levels of the four MAPK genes in FOXO4KD cells were significantly altered | MAPK13 mRNA levels (MAPK13; control KD cells, 75 ppb): trend towards decreased | MAPK13 mRNA levels (MAPK13; control KD cells, 150 ppb): significantly decreased | G6Pc protein levels (G6PC): visibly increased | increase of G6Pc protein expression levels (G6PC; quantitative analysis): ~3 fold | Neprilysin protein levels in the brains (Neprilysin): increased; also recorded: elevated
